According to patent US8440613B2, “Controlling diseases caused by trichomonadida” (Bayer Intellectual Property GmbH, priority 2008, dated 2013):

System: histomonad field strain
Assay: Cage experiments; histomonad activity in turkeys
Assay type: in vivo
Details: day -4 to +14; for Average lesions in the appendix / Infection-related lesions in the liver: score 0=no lesions, 4=severe lesions
Description: Histomonad-free male turkeys aged 10 days received nifurtimox or the comparative compound nitarson in the concentration given in “ppm” together with the feed from day −4 (=4 days prior to infection) to day 14. Infection is carried out on day 0, 10 animals are kept per group cage. 1 to 3 such groups are employed per dose.
The infection is carried out with a histomonad field strain which is passaged in the laboratory and stored in liquid nitrogen. On day 0, in each case 5 animals of a cage (with the exception of the noninfected control) are infected intracloacally with 250 000 histomonads in each case 1 ml of Dwyer's medium (=direct infection). After a few days, these infected animals excrete fresh histomonads and thus transmit the pathogen to the remaining 5 animals of the cage (=indirect infection).
To assess the activity, the criteria of McDougald and Hu 2001 (7) are taken into consideration: • the infection-caused mortality • the weight gain from the beginning to the end of the experiment • feed consumption • feed conversion • macroscopic assessment of the infection-related lesions in the appendices (caecum) and in the liver. In this assessment, score 0=no lesions and score 4=severe lesions.

[1] = direct infection no, nifurtimox 30 ppm in feed, study of Table 1
[2] = direct infection no, nifurtimox 60 ppm in feed, study of Table 1
[3] = direct infection no, nifurtimox 100 ppm in feed, study of Table 2
[4] = direct infection no, nifurtimox 120 ppm in feed, study of Table 1
[5] = direct infection no, nifurtimox 200 ppm in feed, study of Table 1
[6] = direct infection no, nifurtimox 200 ppm in feed, study of Table 2
[7] = direct infection no, nifurtimox 300 ppm in feed, study of Table 2
[8] = direct infection no, nifurtimox 400 ppm in feed, study of Table 2
[9] = direct infection yes, nifurtimox 30 ppm in feed, study of Table 1
[10] = direct infection yes, nifurtimox 60 ppm in feed, study of Table 1
[11] = direct infection yes, nifurtimox 100 ppm in feed, study of Table 2
[12] = direct infection yes, nifurtimox 120 ppm in feed, study of Table 1
[13] = direct infection yes, nifurtimox 200 ppm in feed, study of Table 1
[14] = direct infection yes, nifurtimox 200 ppm in feed, study of Table 2
[15] = direct infection yes, nifurtimox 300 ppm in feed, study of Table 2
[16] = direct infection yes, nifurtimox 400 ppm in feed, study of Table 2
[17] = nifurtimox 30 ppm in feed, study of Table 1
[18] = nifurtimox 60 ppm in feed, study of Table 1
[19] = nifurtimox 100 ppm in feed, study of Table 2
[20] = nifurtimox 120 ppm in feed, study of Table 1
[21] = nifurtimox 200 ppm in feed, study of Table 1
[22] = nifurtimox 200 ppm in feed, study of Table 2
[23] = nifurtimox 300 ppm in feed, study of Table 2
[24] = nifurtimox 400 ppm in feed, study of Table 2
[25] = direct infection no, nitarsone 187.5 ppm in feed, study of Table 1
[26] = direct infection no, nitarsone 187.5 ppm in feed, study of Table 2
[27] = direct infection yes, nitarsone 187.5 ppm in feed, study of Table 1
[28] = direct infection yes, nitarsone 187.5 ppm in feed, study of Table 2
[29] = nitarsone 187.5 ppm in feed, study of Table 1
[30] = nitarsone 187.5 ppm in feed, study of Table 2

CC1CS(=O)(=O)CCN1N=Cc1ccc([N+](=O)[O-])o1 (stereo not drawn) [nifurtimox]
Mean weight gain (g) between day 0 and the time of death [1]: 730 g | Mean weight gain (g) between day 0 and the time of death [2]: 838 g | Mean weight gain (g) between day 0 and the time of death [3]: 581 g | Mean weight gain (g) between day 0 and the time of death [4]: 744 g | Mean weight gain (g) between day 0 and the time of death [5]: 744 g | Mean weight gain (g) between day 0 and the time of death [6]: 525 g | Mean weight gain (g) between day 0 and the time of death [7]: 750 g | Mean weight gain (g) between day 0 and the time of death [8]: 832 g | Mean weight gain (g) between day 0 and the time of death [9]: 235 g | Mean weight gain (g) between day 0 and the time of death [10]: 304 g | Mean weight gain (g) between day 0 and the time of death [11]: 135 g | Mean weight gain (g) between day 0 and the time of death [12]: 182 g | Mean weight gain (g) between day 0 and the time of death [13]: 264 g | Mean weight gain (g) between day 0 and the time of death [14]: 270 g | Mean weight gain (g) between day 0 and the time of death [15]: 450 g | Mean weight gain (g) between day 0 and the time of death [16]: 691 g | Mean feed consumption between day 0 and day 14 [17]: 9.00 kg | Mean feed conversion between day 0 and day 14 [17]: 1.88 | Mortality caused by histomoniasis [17]: 5 | Mean feed consumption between day 0 and day 14 [18]: 9.68 kg | Mean feed conversion between day 0 and day 14 [18]: 1.70 | Mortality caused by histomoniasis [18]: 6 | Mean feed consumption between day 0 and day 14 [19]: 6.69 kg | Mean feed conversion between day 0 and day 14 [19]: 2.32 | Mortality caused by histomoniasis [19]: 13 | Mean feed consumption between day 0 and day 14 [20]: 8.70 kg | Mean feed conversion between day 0 and day 14 [20]: 1.88 | Mortality caused by histomoniasis [20]: 5 | Mean feed consumption between day 0 and day 14 [21]: 9.59 kg | Mean feed conversion between day 0 and day 14 [21]: 1.91 | Mortality caused by histomoniasis [21]: 4 | Mean feed consumption between day 0 and day 14 [22]: 9.14 kg | Mean feed conversion between day 0 and day 14 [22]: 2.33 | Mortality caused by histomoniasis [22]: 4 | Mean feed consumption between day 0 and day 14 [23]: 10.40 kg | Mean feed conversion between day 0 and day 14 [23]: 1.83 | Mortality caused by histomoniasis [23]: 2 | Mean feed consumption between day 0 and day 14 [24]: 11.79 kg | Mean feed conversion between day 0 and day 14 [24]: 1.55 | Mortality caused by histomoniasis [24]: 0 | Average lesions in the appendix [1]: 0.29 | Infection-related lesions in the liver [1]: 0.29 | Average lesions in the appendix [2]: 0.00 | Infection-related lesions in the liver [2]: 0.00 | Average lesions in the appendix [3]: 1.08 | Infection-related lesions in the liver [3]: 0.58 | Average lesions in the appendix [4]: 0.53 | Infection-related lesions in the liver [4]: 0.27 | Average lesions in the appendix [5]: 0.47 | Infection-related lesions in the liver [5]: 0.13 | Average lesions in the appendix [6]: 1.80 | Infection-related lesions in the liver [6]: 0.73 | Average lesions in the appendix [7]: 0.79 | Infection-related lesions in the liver [7]: 0.07 | Average lesions in the appendix [8]: 0.27 | Infection-related lesions in the liver [8]: 0.00 | Average lesions in the appendix [9]: 3.73 | Infection-related lesions in the liver [9]: 2.53 | Average lesions in the appendix [10]: 3.53 | Infection-related lesions in the liver [10]: 2.53 | Average lesions in the appendix [11]: 3.79 | Infection-related lesions in the liver [11]: 2.00 | Average lesions in the appendix [12]: 4.00 | Infection-related lesions in the liver [12]: 1.80 | Average lesions in the appendix [13]: 3.80 | Infection-related lesions in the liver [13]: 1.33 | Average lesions in the appendix [14]: 3.67 | Infection-related lesions in the liver [14]: 1.33 | Average lesions in the appendix [15]: 2.53 | Infection-related lesions in the liver [15]: 0.40 | Average lesions in the appendix [16]: 1.20 | Infection-related lesions in the liver [16]: 0.00

O=[N+]([O-])c1ccc([As](=O)(O)O)cc1 [Nita., nitarsone]
Mean weight gain (g) between day 0 and the time of death [25]: 782 g | Mean weight gain (g) between day 0 and the time of death [26]: 725 g | Mean weight gain (g) between day 0 and the time of death [27]: 541 g | Mean weight gain (g) between day 0 and the time of death [28]: 426 g | Mean feed consumption between day 0 and day 14 [29]: 11.64 kg | Mean feed conversion between day 0 and day 14 [29]: 1.77 | Mortality caused by histomoniasis [29]: 1 | Mean feed consumption between day 0 and day 14 [30]: 9.82 kg | Mean feed conversion between day 0 and day 14 [30]: 1.79 | Mortality caused by histomoniasis [30]: 2 | Average lesions in the appendix [25]: 0.00 | Infection-related lesions in the liver [25]: 0.00 | Average lesions in the appendix [26]: 0.29 | Infection-related lesions in the liver [26]: 0.21 | Average lesions in the appendix [27]: 2.26 | Infection-related lesions in the liver [27]: 0.13 | Average lesions in the appendix [28]: 3.07 | Infection-related lesions in the liver [28]: 0.79
